These results are taken from patent US20070027175A1, “Antineoplastic activities of ellipticine and its derivatives” (priority 2005, published 2007).

The structures appear in SMILES notation.

Experiment [1] concerns myeloma cell lines engrafted in SCID mice. The format is in vivo. To be noted: 25 and 50 mg/kg/day; Alzet osmotic pumps; 28 days; contemplated. An excerpt:
The present invention also examines novel therapeutic approaches for myeloma using experimental animal models. The anti-myeloma efficacy of 9-(Dimethylaminoethoxy)-ellipticine is examined using a panel of myeloma cell lines engrafted in severe combined immunodeficient (SCID) mice. The 3 cell lines are infected with a lentivirus-containing luciferase. Luciferase-expressing myeloma cells can be traced in live animals using the Xenogen IVIS 200 luminescence imaging system. Six to 8 weeks old SCID mice are subcutaneously injected with 10^7 myeloma cells. Tumor growth in live animals is monitored by measuring circulating level of monoclonal human immunoglobulins (hIg) in mice sera using ELISA (Yaccoby et al., 1998; Yang et al., 2002) and through imaging of tumor cells luminescence intensity. The tumor growth is detected within one week by ELISA and within 1-3 weeks by imaging.
Upon establishment of myeloma growth as determined by both methods, mice are randomly divided into 3 groups; one control and 2 treated with different doses of 9-(Dimethylaminoethoxy)-ellipticine (8 mice/group for each cell line). Mice are implanted with Alzet osmotic pumps delivering 0.25 μl of drug solution per hour for 28 days. The daily doses are 25 and 50 mg/kg/day. Control animals have pumps loaded with buffer (PBS) only. At the experiments' end, mice are subjected to imaging analysis, bled and sacrificed. […]

A further experiment relates to Ark myeloma cell line. Nature of the experiment: CellTiter-Glo luminescent cell viability assay, Ark. Type of experiment: cell-based, human. More on the design: unit of the concentration uncertain. Here is the method:
The dosage of each derivative was set at 2, 0.2 and 0.02 mM. A cell culture medium control and 0.5% DMSO control was maintained in each experiment. The cell viability was tested each day over a period of five days using the CellTiter-Glo luminescent cell viability assay kit from Promega Co.
Cell Titer-Glo luminescent cell viability assay kit from Promega Co (Madison, Wis.) was used to determine cell growth inhibition by the various compounds tested. The kit determines cell viability by quantifying the amount of ATP present in the cell culture medium. Presence of ATP signals the presence of metabolically active cells (3). The intensity of luminescence was measured by a computerized luminometer (Promega, Co. Madison, Wis.). Each well was read five times within 30 minutes of adding Cell Titer-Glo reagent mixture.
Cells were contacted with the antineoplastic agents in ninety six well culture plates. The concentration of each neoplastic agent was maintained a constant. A cell culture medium control and 0.5% DMSO control were maintained in each set of experiments. The cell viability was tested every day using the CellTiter-Glo luminescent cell viability kit from Promega Co. (Madison, Wis.) for a period of five days.
(Cellular ATP, detected with luciferase, serves as a proxy for viable cell number.)

As for `Cc1c2ccncc2c(C)c2c1[nH]c1ccc(OCCN(C)C)cc12` [NSC 338258, ellipticine, 9-dimethyl amino-ethoxy-], the “inhibition of myeloma cell growth in vivo” value in experiment [1] is on record as “effectively inhibits myeloma cell growth in vivo”. Moreover, the “cell viability (CellTiter-Glo luminescent assay)” value (from here on “cell viability”) in the experiment with Ark myeloma cell line (0.02 (unit uncertain), Day 1) is given as 99,050; in the experiment with Ark myeloma cell line (0.02 (unit uncertain), Day 2), 187,835; in the experiment on Ark myeloma cell line (0.02 (unit uncertain), Day 3), 297,927; with Ark myeloma cell line (0.02 (unit uncertain), Day 4) it was 764,382; in the experiment with Ark myeloma cell line (0.02 (unit uncertain), Day 5) it was 982,255; with Ark myeloma cell line (0.2 (unit uncertain), Day 1) it was 1,085. The “cell viability” value in the experiment with Ark myeloma cell line (0.2 (unit uncertain), Day 2) came to 489; in the experiment on Ark myeloma cell line (0.2 (unit uncertain), Day 3), 384; with Ark myeloma cell line (0.2 (unit uncertain), Day 4), 530; in the experiment with Ark myeloma cell line (0.2 (unit uncertain), Day 5), 376; with Ark myeloma cell line (2 (unit uncertain), Day 1) it was 523; in the experiment with Ark myeloma cell line (2 (unit uncertain), Day 2), 342. The “cell viability” value with Ark myeloma cell line (2 (unit uncertain), Day 3) worked out at 366; with Ark myeloma cell line (2 (unit uncertain), Day 4), 478; in the experiment on Ark myeloma cell line (2 (unit uncertain), Day 5) it was 299.
